Source: patent US8415391B2, “3.2.1-bicyclo-octene and -octane compounds” (International Flavors & Fragrances Inc., priority 2010, dated 2013)

Legend:
[1] = Vapor pressure; format: physicochemical
[2] = Mold/mildew malodor coverage, panel sniff test with proprietary malodor model; set-up: species or system human; conditions: compound 10% in solvent; 1 h equilibration in 8 oz jar; 15-18 panelists; scale 1 (No Coverage) to 5 (Excellent Coverage)
Experimental: (§1) It is known that the perspirative malodors of human body, particularly sweat, are associated with the production of several unpleasant smelling organic acids, particularly isovaleric acid (“IVA”). The commercial sample of this malodorous material (commercially available at Sigma-Aldrich Inc.) was thus used as a model compound to assess the effectiveness of sweat malodor counteractants. The mold/mildew malodor model was prepared based on applicant's proprietary formulations for assessing the effectiveness of mold/mildew malodor counteractants.
(§2) Two aluminum dishes were placed in an 8 oz glass jar. A malodor material was pipetted into one aluminum dish, and a compound of the present invention diluted in a solvent (10%) or a solvent alone control was pipetted into the other aluminum dish. The jar was then capped and the samples were allowed to equilibrate for one hour before the testing.
(§3) Test samples were presented in a blind and random order to 15-18 internal panelists (consisting of men/women with an age range of 25 to 55). However, different odor samples were arranged in an alternative order (for example, sweat, mold/mildew, sweat, mold/mildew, and etc.).
(§4) The panelists were instructed to take the steps of i) sniff jars containing only the malodor materials for familiarization prior to the testing; ii) uncap a jar; iii) place their noses at a distance of about 3-4 inches above the opening; iv) take short sniffs for 3 seconds; and v) provide a rank of the malodor coverage using an intensity scale of 1 to 5, where 1 represents “No Coverage”, 3 represents “Moderate Coverage”, and 5 represents “Excellent Coverage”. The means for each sample was then calculated.

[3] = Sweat malodor coverage, panel sniff test with isovaleric acid model; set-up: species or system human; conditions: compound 10% in solvent; 1 h equilibration in 8 oz jar; 15-18 panelists; scale 1 (No Coverage) to 5 (Excellent Coverage)
Experimental: as §1, §2, §3, §4

Vapor Pressure [1]	SMILES	Mold/Mildew Malodor, mean rank of malodor coverage [2]	Sweat Malodor, mean rank of malodor coverage [3]
28652 µg/L	CC1=CCC2(C)CCC1C2 (stereo not drawn) [Structure I, 2,5-dimethyl-bicyclo[3.2.1]oct-2-ene]	3.32	3.90
1091 µg/L	CC(=O)OC1CC2(C)CCC(C2)C1C (stereo not drawn) [Structure IV, acetic acid 1,4-dimethyl-bicyclo[3.2.1]oct-3-yl ester]	2.96	3.09
406 µg/L	COC(=O)OC1CC2(C)CCC(C2)C1C (stereo not drawn) [Structure V, carbonic acid 1,4-dimethyl-bicyclo[3.2.1]oct-3-yl ester methyl ester]	2.49	2.42
